Measured values taken from patent publication US20220282217A1, “COMPOSITIONS AND METHODS FOR PREPARING T CELL COMPOSITIONS AND USES THEREOF” (priority 2019, published 2022).
Like-named read-outs stand apart in the source and are kept apart here. Where a SMILES comes first, the peptide text is derived from it.

Columns and labels:
[1] = target: T1, HLA-B07.02 (Homo sapiens, UniProt P01889); test: Class I MHC peptide binding stability (pMHC-I dissociation, 125I-labeled light chain); design: made in house; host or cells: E. coli; settings: Allele B07.02
[2] = target: T2, HLA-B08.01 (Homo sapiens, UniProt P01889, A93T/A95T/D138N/E176V/E187T/K202T/Q94N/R180D/S35A/V36M/Y33D/Y91F); test: as above; settings: Allele B08.01
[3] = target: T3, HLA-A01.01 (Homo sapiens, UniProt P04439, A114D/A174V/A182V/D101N/E190D/Q94H/R68K/S129P/V100A/V91M/W191G); test: as above
T3 construct: made in house; host or cells: E. coli

[4] = target: HLA-A11.01 (Homo sapiens, UniProt P04439, A114D/D185E/E176A/F33Y/L180Q/S129P/T187R); test: Class I MHC peptide binding affinity (displacement of radiolabeled reference peptide)
[5] = target: HLA-A01.01 (Homo sapiens, UniProt P04439, A114D/A174V/A182V/D101N/D185E/E176A/E190D/L180R/Q94H/R68K/S129P/T187R/V100A/V91M/W191G); test: as above
Method in brief: (§1)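 Displacement format in which varying amounts of peptide compete for 2 days with a radiolabeled reference ligand prebound to class I MHC, residual complex-associated label being measured after gel-filtration separation.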

[6] = target: T4, HLA-A03.01 (Homo sapiens, UniProt P04439); test: as above
[7] = target: T4, HLA-A03.01; test: Class I MHC peptide binding stability (pMHC-I dissociation, 125I-labeled light chain); design: made in house; host or cells: E. coli; settings: HLA Allele A03.01; for Stability (half-life (hr.)): BTK C481S peptide; for Measured stability: time for half of the complexes to dissociate at 37° C.
[8] = target: T5, HLA-A02.01 (Homo sapiens, UniProt P04439, D140Y/D185E/D98H/E176V/E277Q/G131W/G231S/I119V/I121R/I166T/I218V/N151K/N90K/P208A/P217A/Q86G/Q94H/R138H/R169H); test: as above; settings: allele A02.01
T5 construct: made in house; host or cells: E. coli

[9] = target: T6, HLA-A11.01 (Homo sapiens, UniProt P04439, A114D/F33Y/S129P); test: as above; settings: HLA Allele A11.01; time for half of the complexes to dissociate at 37° C.
T6 construct: made in house; host or cells: E. coli

[10] = target: HLA-A02.01 (Homo sapiens, UniProt P04439, D140Y/D185E/D98H/E176V/E277Q/G131W/G231S/I119V/I121R/I166T/I218V/L300P/L318F/N151K/N90K/P208A/P217A/Q86G/Q94H/R138H/R169H/T345S); test: Class I MHC peptide binding affinity (displacement of radiolabeled reference peptide); settings: allele A02.01, (nM))
Method in brief: as §1

[11] = target: T1, HLA-B07.02; test: as above
[12] = target: 293T cells transduced with GATA3 neoORF, expressing the HLA of interest (Homo sapiens, UniProt P01889); test: Presentation of GATA3 neoantigens: HLA-eluted peptides by targeted MS/MS (PRM) (Table 14); assay type: cell-based; settings: GATA3 neoORF transduced 293T cells expressing HLA-B*07:02 protein
Protocol: To assess whether antigens could be processed and presented from the larger polypeptide context, peptides eluted from HLA molecules isolated from cells expressing the genes of interest were analyzed by tandem mass spectrometry (MS/MS).
Between 50 and 700 million of the transduced cells expressing peptides encoded by the GATA3 neoORF sequence were cultured and peptides were eluted from HLA-peptide complexes using an acid wash. Eluted peptides were then analyzed by targeted MS/MS using PRM. Spectral comparison between peptides derived from GATA3 neoORF and corresponding synthetic peptides were performed to confirm each detection.

[13] = target: T2, HLA-B08.01; test: Class I MHC peptide binding affinity (displacement of radiolabeled reference peptide)
Method in brief: as §1

[14] = BTK C481S peptide, HLA Allele A01.01
[15] = Observed Affinity (IC50, (nM)), allele A01.01
[16] = Allele B07.02, read-out: Observed Affinity (IC50, (nM))

Structure (SMILES): CSCC[C@H](NC(=O)[C@H](Cc1c[nH]c2ccccc12)NC(=O)[C@H](Cc1c[nH]cn1)NC(=O)[C@H](CC(N)=O)NC(=O)[C@H](CCCNC(=N)N)NC(=O)[C@H](CCCNC(=N)N)NC(=O)[C@H](CCC(N)=O)NC(=O)[C@H](CO)NC(=O)[C@@H]1CCCN1C(=O)[C@@H](N)CC(C)C)C(=O)O
- Stability (T1/2 (h)) [1]: 6.5 h
- Stability (T1/2 (h)) [2]: 0.7 h

Structure (SMILES): CSCC[C@H](N)C(=O)N[C@@H](C)C(=O)N[C@@H](CC(N)=O)C(=O)NCC(=O)N[C@@H](CO)C(=O)N[C@@H](CC(C)C)C(=O)N[C@@H](CC(C)C)C(=O)N[C@@H](CC(N)=O)C(=O)N[C@@H](Cc1ccc(O)cc1)C(=O)O
- Stability (half-life (hr.)) [3, 14]: 12.98 min
- IC50 [4]: 0.536 µM
- IC50 ([5]; Affinity (nM), BTK C481S peptide, HLA Allele A01.01): 439 nM
- IC50 [5, 15]: 439 nM
- IC50 ([6]; Affinity (nM), BTK C481S peptide, HLA Allele A03.01): 35.6 nM
- IC50 ([6]; Observed Affinity (IC50, (nM)), allele A03.01): 35.6 nM
- Stability (half-life (hr.)) [7]: 14.3 min

Structure (SMILES): CC(C)C[C@H](NC(=O)[C@@H]1CCCN1C(=O)[C@H](CS)NC(=O)[C@H](CC(C)C)NC(=O)[C@H](Cc1c[nH]cn1)NC(=O)[C@H](CC(N)=O)NC(=O)CNC(=O)[C@H](CC(C)C)NC(=O)[C@@H](N)CO)C(=O)O
- Stability (T1/2 (h)) [2]: 0.5 h
- Stability (T1/2 (h)) [8]: 3.5 h

Structure (SMILES): CC(C)[C@H](N)C(=O)N[C@H](C(=O)NCC(=O)N[C@@H](C)C(=O)N[C@@H](CS)C(=O)NCC(=O)N[C@H](C(=O)NCC(=O)N[C@@H](CCCCN)C(=O)O)C(C)C)C(C)C
- Measured stability [7]: 5.0 h
- Measured stability [9]: 10.0 h

Structure (SMILES): CC(C)[C@H](N)C(=O)N[C@H](C(=O)NCC(=O)N[C@@H](C)C(=O)N[C@@H](CC(=O)O)C(=O)NCC(=O)N[C@H](C(=O)NCC(=O)N[C@@H](CCCCN)C(=O)O)C(C)C)C(C)C
- Measured stability [9]: 3.4 h

Structure (SMILES): CC(C)[C@H](N)C(=O)N[C@H](C(=O)N[C@H](C(=O)NCC(=O)N[C@@H](C)C(=O)N[C@@H](CC(=O)O)C(=O)NCC(=O)N[C@H](C(=O)NCC(=O)N[C@@H](CCCCN)C(=O)O)C(C)C)C(C)C)C(C)C
- Measured stability [7]: 2.3 h
- Measured stability [9]: 13.0 h

Structure (SMILES): CC[C@H](C)[C@H](NC(=O)[C@H](CCCCN)NC(=O)[C@H](CO)NC(=O)[C@H](CCC(=O)O)NC(=O)[C@H](C)NC(=O)[C@H](CCCCN)NC(=O)[C@H](CC(C)C)NC(=O)[C@H](Cc1ccccc1)NC(=O)[C@H](CCSC)NC(=O)[C@@H](N)Cc1ccc(O)cc1)C(=O)O
- Stability (T1/2 (h)) [2]: 0.4 h
- Stability (T1/2 (h)) [8]: 0.6 h

Structure (SMILES): CSCC[C@H](NC(=O)[C@@H](NC(=O)[C@H](Cc1ccc(O)cc1)NC(=O)[C@H](C)NC(=O)[C@H](CCSC)NC(=O)[C@@H](NC(=O)[C@@H](N)Cc1ccc(O)cc1)C(C)C)C(C)C)C(=O)N[C@@H](C)C(=O)NCC(=O)O
- IC50 ([10]; read-out: Observed Affinity (IC50): 11500 nM
- Stability (T1/2 (h)) [2]: 1.2 h
- Stability (T1/2 (h)) [8]: 2.5 h

Structure (SMILES): CSCC[C@H](NC(=O)[C@H](Cc1ccc(O)cc1)NC(=O)CNC(=O)[C@H](CC(=O)O)NC(=O)[C@H](CCCNC(=N)N)NC(=O)[C@H](CCCCN)NC(=O)[C@@H]1CCCN1C(=O)[C@@H](N)CCCCN)C(=O)N[C@@H](Cc1ccccc1)C(=O)O (H-KPKRDGYMF-OH; N-terminus and C-terminus assumed)
- IC50 [11, 16]: 28.2 nM
- detected by mass spectrometry (peptide eluted from HLA-peptide complexes) [12]: detected

Structure (SMILES): CSCC[C@H](NC(=O)[C@H](Cc1ccc(O)cc1)NC(=O)CNC(=O)[C@H](CC(=O)O)NC(=O)[C@H](CCCNC(=N)N)NC(=O)[C@H](CCCCN)NC(=O)[C@@H]1CCCN1C(=O)[C@@H](N)CCCCN)C(=O)N[C@@H](Cc1ccccc1)C(=O)N[C@@H](CC(C)C)C(=O)O (H-KPKRDGYMFL-OH; N-terminus and C-terminus assumed)
- IC50 [11, 16]: 98.1 nM
- detected by mass spectrometry (peptide eluted from HLA-peptide complexes) [12]: detected

Structure (SMILES): CC[C@H](C)[C@H](NC(=O)[C@H](CC(C)C)NC(=O)[C@H](CCC(N)=O)NC(=O)[C@@H](NC(=O)[C@@H](NC(=O)[C@H](CO)NC(=O)[C@@H](NC(=O)[C@@H](N)CC(C)C)[C@@H](C)O)[C@@H](C)O)C(C)C)C(=O)N[C@@H](CCSC)C(=O)O (H-LTSTVQLIM-OH; N-terminus and C-terminus assumed)
- Stability (half-life (hr.)) ([3]; EGFR T790M peptides, HLA allele A01.01): 6.222 min
- Kd [5]: 2.89 µM
- IC50 [5, 15]: 2890 nM

Structure (SMILES): CC[C@H](C)[C@H](NC(=O)[C@H](Cc1ccc(O)cc1)NC(=O)[C@H](CCCCN)NC(=O)CNC(=O)[C@H](CCCNC(=N)N)NC(=O)[C@H](CCCCN)NC(=O)[C@H](Cc1c[nH]cn1)NC(=O)[C@H](CC(C)C)NC(=O)[C@@H](N)Cc1c[nH]c2ccccc12)C(=O)O (H-WLHKRGKYI-OH; N-terminus and C-terminus assumed)
- IC50 [11]: 2650 nM
- IC50 ([10]; Observed Affinity (IC50): 1250 nM
- IC50 [13]: 0.417 µM
- Stability (T1/2 (h)) [2]: 1.3 h
- Stability (T1/2 (h)) [8]: 1.2 h

Structure (SMILES): CSCC[C@H](NC(=O)[C@@H](N)Cc1ccc(O)cc1)C(=O)N[C@@H](C)C(=O)N[C@@H](CC(N)=O)C(=O)NCC(=O)N[C@@H](CO)C(=O)N[C@@H](CC(C)C)C(=O)N[C@@H](CC(C)C)C(=O)N[C@@H](CC(N)=O)C(=O)N[C@@H](Cc1ccc(O)cc1)C(=O)O (H-YMANGSLLNY-OH; N-terminus and C-terminus assumed)
- Stability (half-life (hr.)) [3, 14]: 51.97 min
- IC50 ([4]; BTK C481S peptide, HLA Allele A11.01, read-out: Affinity): 0.974 µM
- IC50 ([5]; BTK C481S peptide, HLA Allele A01.01, read-out: Affinity): 13.2 nM
- IC50 ([5]; allele A01.01, read-out: Observed Affinity (IC50, (nM))): 13.2 nM
- IC50 ([6]; BTK C481S peptide, HLA Allele A03.01, read-out: Affinity): 95.9 nM
- IC50 ([6]; allele A03.01, read-out: Observed Affinity (IC50, (nM))): 95.9 nM
- Stability (half-life (hr.)) [7]: 16.75 min
